These results are taken from EP4737448A1, “SARM1 ENZYME ACTIVITY INHIBITOR AND USE THEREOF” (Artivila (ShenZhen) Innovation Center, Ltd., priority 2023, dated 2025).

One assay concerns the target T1, SARM1 (Homo sapiens, UniProt Q6SZW1).
T1 construct: the inventor produces full-length SARM1 for NADase activity assays and for screening; His (C); made in house; host or cells: HEK293 cells (transient transfection; digitonin lysate supernatant, not purified further)
T1 sequence (Q6SZW1 28-724): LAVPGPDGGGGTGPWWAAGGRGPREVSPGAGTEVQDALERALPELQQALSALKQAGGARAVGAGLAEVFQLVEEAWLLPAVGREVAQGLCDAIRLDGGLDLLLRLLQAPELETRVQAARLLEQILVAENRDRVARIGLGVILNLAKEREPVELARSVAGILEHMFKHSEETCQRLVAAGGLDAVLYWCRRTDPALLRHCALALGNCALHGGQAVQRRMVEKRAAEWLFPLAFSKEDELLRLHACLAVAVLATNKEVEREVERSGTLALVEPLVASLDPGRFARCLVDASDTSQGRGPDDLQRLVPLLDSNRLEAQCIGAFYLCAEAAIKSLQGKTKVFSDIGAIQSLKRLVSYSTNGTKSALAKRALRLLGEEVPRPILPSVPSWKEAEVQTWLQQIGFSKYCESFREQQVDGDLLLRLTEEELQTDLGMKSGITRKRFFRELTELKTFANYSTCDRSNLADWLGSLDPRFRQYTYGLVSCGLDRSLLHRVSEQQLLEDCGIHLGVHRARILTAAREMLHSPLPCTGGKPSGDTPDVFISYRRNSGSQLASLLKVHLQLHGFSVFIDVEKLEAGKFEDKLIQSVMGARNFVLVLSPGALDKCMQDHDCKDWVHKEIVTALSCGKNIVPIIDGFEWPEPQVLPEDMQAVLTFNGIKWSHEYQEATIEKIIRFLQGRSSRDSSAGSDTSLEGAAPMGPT
In words: In vitro biochemical assay for inhibiting SARM1 enzymatic activity (PC6 fluorescence, NAD substrate, NMN activator). The conditions noted are these: 0.05 µg/mL SARM1, 50 µM NAD, 50 µM PC6, 50 µM NMN, 10 min pre-incubation, 30 min at room temperature. The protocol:
Compounds to be tested were stocked at 200 µM or 10 mM (in DMSO), and further diluted to the desired compound concentration for the in vitro SARM1 enzyme assay and inhibitor screening.
The gene sequence encoding SARM1 protein was amplified by PCR and the PCR amplification product was constructed into the pcDNA3.1-HIS-C plasmid. This construction was completed by YouBio Biological Technology (Hunan, China).
HEK293 cells were cultured in DMEM in a 10 cm dish. The next day, cells were transfected with 15 µg of the pcDNA3.1-SARM1-HIS-C expression plasmid.
Cells were harvested 48 hours after the transfection. The SARM1 protein expressed in cells was obtained through cell lysis by digitonin, which was used for in vitro activity assay. The specific process was as follows:
Cells were digested and detached from the dish using trypsin-EDTA, centrifuged at 1000 rpm for 5 minutes, washed once with PBS, then resuspended in PBS containing 100 µM digitonin at 0.6 mL PBS for the cells in 10 cm dish and lysed for 5 min. The cells were added with trypan blue and observed under a microscope. More than 90% of the cells were confirmed to be lysed. The cells were centrifuged at 5000 rpm for 10 min, and the supernatant containing SARM1 protein was collected.
The compound was added into a solution of 50 mM Tris-HCl (pH 7.5) containing 0.05 µg/mL SARM1 to achieve a concentration of 200 µM, and then serially diluted 6 times, where each dilution was carried out by taking half of the previous solution and adding an equal volume of 50 mM Tris-HCl (pH 7.5) containing 0.05 µg/mL SARM1, yielding a set of final concentrations of the compound of either 200, 100, 50, 25, 12.5, 6.25 and 3.125 µM, or 200, 50, 12.5, 3.125, 0.78, 0.195 and 0.049 µM. No inhibitor was added in the control group. All mixtures were incubated at room temperature for 10 min.
Subsequently, 50 µM NAD, 50 µM PC6 as substrate and 50 µM NMN as activator were added to the SARM1 protein incubated with the inhibitor and reacted for 30 min at room temperature. Wherein, the aforementioned concentrations of each component represent their respective final concentrations in the reaction system
During the reaction, the fluorescence spectrum dynamics of PC6 was detected by a microplate reader, with excitation and emission wavelengths set at 390 nm and 520 nm, respectively. The activity of the protein was expressed as the reaction rate and half maximal inhibitory concentration was calculated. The higher the reaction rate, the stronger the protein activity, and the lower the inhibitory efficiency of the compound.
Dose-response curves for inhibition of SARM1 enzymatic activity for NAD by the compounds were plotted using the above method.

The subject of assay [1] is axons of dorsal root ganglia explants. In words: Wallerian degeneration assay of axon in mouse DRG explant culture. The assay is classed as cell-based, C57BL/6 mice. The following applies: 10 µM compound, 2 h pretreatment, 24 h post axonal transection. The protocol:
Dorsal root ganglia were dissected from two-month-old male C57BL/6 mice and placed into a 35-mm culture dish containing ice-cold HBSS buffer. Extra tissue surrounding each dorsal ganglion was removed using a scalpel, and the ganglia were cut into 2-3 explant pieces. These explants were seeded into wells of a 96-well plate pre-coated with 100 ng/mL Matrigel (Corning), added with 100 µL of DRG medium (Neurobasal medium (Gibco) containing 2% B-27 (Gibco), 1% GlutaMAX (Gibco) and 10 ng/mL NGF (MCE)), and cultured in a 37°C incubator for one week. The medium was half- replaced on the fourth day and the experiments were counted on the eighth day.
Refer to methods reported in literatures in the related art (Gerdts J, Sasaki Y, Vohra B, Marasa J, Milbrandt J. Image-based screening identifies novel roles for IkappaB kinase and glycogen synthase kinase 3 in axonal degeneration. J Biol Chem. 2011 Aug 12;286(32):28011-8) for the definition and measurement principle of the degeneration index of axon. In the present disclosure, the measurement method is detaild below.
0.1 µL of 10 mM compound to be tested was added to 100 µL of DRG medium to prepare a new medium containing 10 µM compound to be tested. The medium in the 96-well plate was removed and replaced with the new medium containing the compound to be tested. Explant pieces of dorsal ganglia were incubated with compounds in a 37°C incubator for 2 h of pre-protection. Following this 2-hour pretreatment, axons were transcted near the explants tissue piece using a glass microelectrode. At 0 h and 24 h post axonal transection, brightfield images of axons in the same region were captured using a microscope (Olympus) with 20× objective. Axonal integrity was assessed using an in-house developed script. The results were categorized based on the degree of protection into: (A) >50% and (B) 20-50%.

The term IC50 denotes the concentration at which inhibition is half-maximal.

`O=C1C(Cc2ccc(F)c(F)c2)CCN1c1ccc(-c2ccncc2)cc1` (racemic) [Compound 30, 3-(3,4-difluorobenzyl)-1-(4-(pyridin-4-yl)phenyl)pyrrolidin-2-one] displayed an IC50 on SARM1 of under 1 µM. Further, in assay [1], the “Degree of protection against axonal Wallerian Degeneration” value (shortened to “Degree of protection”) was “A ((A) >50%)”.
As to `O=C1[C@H](Cc2ccc(F)c(F)c2)CCN1c1ccc(-c2ccncc2)cc1` (single isomer, unassigned) [Compound 81], the IC50 against SARM1 is under 1 µM. Also, in assay [1], the “Degree of protection” value is reported as “A ((A) >50%)”.
Consider `O=C1[C@H](Cc2ccc(F)c(F)c2)CCN1c1ccc(-c2ccncc2)cc1` (single isomer, unassigned) [Compound 82], for which, at SARM1, the IC50 was under 1 µM. For the same compound, the “Degree of protection” value in assay [1] is on record as “A ((A) >50%)”.
At SARM1, `O=C1C(Cc2ccc(Cl)cc2)CCN1c1ccc(-c2ccncc2)cc1` (stereo not shown) [Compound 1, 3-(4-chlorobenzyl)-1-(4-(pyridin-4-yl)phenyl)pyrrolidin-2-one] gave an IC50 of under 1 µM. The “Degree of protection” value in assay [1] is recorded as “A ((A) >50%)”.
The compound `O=C1C(Cc2ccc(Cl)cc2)CON1c1ccc(-c2ccncc2)cc1` (stereo not shown) [Compound 3, 4-(4-chlorobenzyl)-2-(4-(pyridin-4-yl)phenyl)isoxazolidin-3-one] registered an IC50 against SARM1 of under 1 µM. For the same compound, the “Degree of protection” value in assay [1] was “B ((B) 20-50%)”.
For `O=C1C(Cc2ccc(Cl)cc2)CCN1c1ccc(-c2ccncc2)cn1` (stereo not shown) [Compound 6, 1-([3,4'-bipyridin]-6-yl)-3-(4-chlorobenzyl)pyrrolin-2-one] the same measures were 1 to 10 µM and “A ((A) >50%)”.
At SARM1, `O=C1C(Cc2ccc(Cl)cc2)CCN1c1ccc(-c2ccncc2)nc1` (stereo not shown) [Compound 7] yielded an IC50 of 1 to 10 µM. Moreover, the “Degree of protection” value in assay [1] is listed as “A ((A) >50%)”.
`O=C1C(Cc2ccc(F)cc2)CCN1c1ccc(-c2ccncc2)cc1` (stereo not shown) [Compound 15, 3-(4-fluorobenzyl)-1-(4-(pyridin-4-yl)phenyl)pyrrolidin-2-one] came in with an IC50 on SARM1 of 1 to 10 µM. Also, the “Degree of protection” value in assay [1] is reported as “B ((B) 20-50%)”.
As for `Cc1ccc(CC2CCN(c3ccc(-c4ccncc4)cc3)C2=O)cc1` (stereo not shown) [Compound 17, 3-(4-methylbenzyl)-1-(4-(pyridin-4-yl)phenyl)pyrrolidin-2-one], the IC50 on SARM1 was 1 to 10 µM. In assay [1], the “Degree of protection” value is on record as “A ((A) >50%)”.
As for `O=C1C(Cc2ccc(Cl)cc2)CCN1c1cnc(-c2ccncc2)cn1` (stereo not shown) [Compound 20, 3-(4-chlorobenzyl)-1-(5-(pyridin-4-yl)pyrazin-2-yl)pyrrolidin-2-one], the IC50 on SARM1 was under 1 µM. In addition, the “Degree of protection” value in assay [1] was “B ((B) 20-50%)”.
For the compound `N#Cc1cc(-c2ccncc2)ccc1N1CCC(Cc2ccc(Cl)cc2)C1=O` (stereo not shown) [Compound 21, 2-(3-(4-chlorobenzyl)-2-pyrrolidinone-1-yl)-5-(pyridin-4-yl)benzonitrile], on SARM1, the IC50 lay within 10 to 30 µM. Besides, the “Degree of protection” value in assay [1] is given as “B ((B) 20-50%)”.
`O=C1C(Cc2ccccc2)CCN1c1ccc(-c2ccncc2)cc1` (stereo not shown) [Compound 24, 3-benzyl-1-(4-(pyridin-4-yl)phenyl)pyrrolidin-2-one]: at SARM1, the IC50 fell in the range of 1 to 10 µM. In addition, the “Degree of protection” value in assay [1] is listed as “B ((B) 20-50%)”.
The matching figures for `O=C1C(Cc2ccc(Cl)nc2)CCN1c1ccc(-c2ccncc2)cc1` (stereo not shown) [Compound 25, 3-((6-chloropyridin-3-yl)methyl)-1-(4-(pyridin-4-yl)phenyl)pyrrolidin-2-one]: 1 to 10 µM and “A ((A) >50%)”.
At SARM1, `O=C1C(Cc2ccc(Cl)s2)CCN1c1ccc(-c2ccncc2)cc1` (stereo not shown) [Compound 29, 3-((5-chlorothiophen-2-yl)methyl)-1-(4-(pyridin-4-yl)phenyl)pyrrolidin-2-one] yielded an IC50 of under 1 µM. For the same compound, the “Degree of protection” value in assay [1] is recorded as “A ((A) >50%)”.
With `O=C1C(Cc2cc(F)cc(F)c2)CCN1c1ccc(-c2ccncc2)cc1` (stereo not shown) [Compound 33, 3-(3,5-difluorobenzyl)-1-(4-(pyridin-4-yl)phenyl)pyrrolidin-2-one], on SARM1, the concentration for half-maximal inhibition (IC50) lay in the range of 1 to 10 µM. The “Degree of protection” value in assay [1] was “A ((A) >50%)”.
As to `O=C1C(Cc2ccc(Cl)cc2)CCN1c1ccc(-c2ccncc2Cl)cc1` (stereo not shown) [Compound 34, 3-(4-chlorobenzyl)-1-(4-(3-chloropyridin-4-yl)phenyl)pyrrolidin-2-one], on SARM1, the IC50 was under 1 µM. Moreover, the “Degree of protection” value in assay [1] is on record as “A ((A) >50%)”.
In turn, `O=C(O)c1ccc(CC2CCN(c3ccc(-c4ccncc4)cc3)C2=O)cc1` (stereo not shown) [Compound 87, 4-((2-oxo-1-(4-(pyridin-4-yl)phenyl)pyrrolidin-3-yl)methyl)benzoic acid] yielded an IC50 at SARM1 of 10 to 30 µM.
On SARM1, `CN1CCN(Cc2ccc(CC3CCN(c4ccc(-c5ccncc5)cc4)C3=O)cc2)CC1` (stereo not shown) [Compound 88, 3-(4-((4-methylpiperazin-1-yl)methyl)benzyl)-1-(4-(pyridin-4-yl)phenyl)pyrrolidin-2-one] yielded an IC50 of 10 to 30 µM.
On SARM1, `C#Cc1ccc(CC2CCN(c3ccc(-c4ccncc4)cc3)C2=O)cc1` (stereo not shown) [Compound 89, 3-(4-ethynylbenzyl)-1-(4-(pyridin-4-yl)phenyl)pyrrolidin-2-one] had an IC50 of 10 to 30 µM.
As for `O=C1C(Cc2ccc(/C=C/Cl)cc2)CCN1c1ccc(-c2ccncc2)cc1` (stereo not shown) [Compound 90, (E)-3-(4-(2-chloroethenyl)benzyl)-1-(4-(pyridin-4-yl)phenyl)pyrrolidin-2-one], the IC50 on SARM1 was 1 to 10 µM.
On to `CC(=O)c1ccc(CC2CCN(c3ccc(-c4ccncc4)cc3)C2=O)cc1` (stereo not shown) [Compound 91, 3-(4-acetylbenzyl)-1-(4-(pyridin-4-yl)phenyl)pyrrolidin-2-one], for which, on SARM1, the half-maximal inhibitory concentration (IC50) lay within 10 to 30 µM.
